The values that follow come from patent US20110195900A1, “PEPTIDIC PTH RECEPTOR AGONISTS” (FERRING B.V., priority 2008, published 2011).

The test addresses T1, human PTH-1 receptor (Homo sapiens, UniProt Q03431).
T1 construct: expressed in transfected cells; host or cells: HEK-293
T1 sequence (Q03431 27-593): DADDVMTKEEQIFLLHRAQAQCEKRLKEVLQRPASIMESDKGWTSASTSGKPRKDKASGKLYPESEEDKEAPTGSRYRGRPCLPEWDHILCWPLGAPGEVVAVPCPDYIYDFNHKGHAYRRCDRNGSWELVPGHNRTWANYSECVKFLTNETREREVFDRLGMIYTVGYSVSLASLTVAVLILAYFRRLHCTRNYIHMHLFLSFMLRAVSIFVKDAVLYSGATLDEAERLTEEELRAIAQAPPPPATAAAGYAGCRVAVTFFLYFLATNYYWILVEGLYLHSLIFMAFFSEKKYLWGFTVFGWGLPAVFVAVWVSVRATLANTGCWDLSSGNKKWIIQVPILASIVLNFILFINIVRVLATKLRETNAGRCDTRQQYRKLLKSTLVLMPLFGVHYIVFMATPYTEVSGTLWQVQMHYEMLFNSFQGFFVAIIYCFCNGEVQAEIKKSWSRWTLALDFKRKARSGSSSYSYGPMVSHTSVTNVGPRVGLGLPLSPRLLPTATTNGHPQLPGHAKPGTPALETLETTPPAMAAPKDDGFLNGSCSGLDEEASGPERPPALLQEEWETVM
The experiment in a line: Reporter gene assay (CRE-luciferase) for agonist activity in transiently transfected HEK-293 cells. Type of test: cell-based. Particulars: for hPTHR-2/hPTHR-1: ratio of EC50 values, selectivity for hPTH-1 receptor over hPTH-2 receptor. As for the experimental part: Agonist activity of compounds on the human PTH-1 receptor was determined in a reporter gene assay by transiently transfecting HEK-293 cells with plasmids encoding human PTH-1 receptor under control of the SV40 promoter and a luciferase reporter gene under control of cAMP responsive elements (CRE). See Himmler et al, J. Recept. Res. 13 (1993) 79-94, for further guidance on this assay. Transfected cells were exposed to serial dilutions of compounds for 4-5 hours followed by lysis of cells, determination of luciferase activity, and determination of compound efficacies and EC50 values through non-linear regression.
PTH (1-34) was used as an internal control in each experiment and compounds were tested in at least three independent experiments. To determine selectivity, compounds were tested in luciferase-based transcriptional reporter gene assays expressing the human PTH-2 receptor.
A general note: A reporter such as luciferase makes a cellular process visible.

Non-standard residues stand in square brackets, D forms with d. Residues, ends and D or L forms follow the SMILES beside them. 1Nal = N[C@@H](Cc1cccc2ccccc12)C(=O)O; β3hI = CC[C@H](C)[C@H](N)CC(=O)O; hSer = N[C@@H](CCO)C(=O)O; Nle = CCCC[C@H](N)C(=O)O; Aib = CC(C)(N)C(=O)O; βAla = NCCC(=O)O

Usually EC50 stands for the concentration that produces a half-maximal response. High values mean a need for much substance, low ones an effect from little substance.

Take `CCCC[C@H](NC(=O)[C@H](CC(C)C)NC(=O)[C@H](CCC(N)=O)NC(=O)[C@@H](NC(=O)[C@H](CCC(=O)O)NC(=O)[C@H](CO)NC(=O)[C@@H](NC(=O)C(C)(C)N)C(C)C)[C@@H](C)CC)C(=O)N[C@@H](Cc1c[nH]cn1)C(=O)N[C@@H](CC(N)=O)C(=O)N[C@@H](CC(C)C)C(=O)NCC(=O)N[C@@H](CCCCN)C(=O)N[C@@H](Cc1c[nH]cn1)C(=O)N[C@@H](CC(C)C)C(=O)N[C@@H](CC(N)=O)C(=O)NCCC(=O)N[C@@H](CCOC)C(=O)N[C@@H](CCC(=O)O)C(=O)N[C@@H](CCCNC(=N)N)C(=O)N[C@H](C(=O)N[C@@H](CCC(=O)O)C(=O)N[C@@H](Cc1cccc2ccccc12)C(=O)N[C@@H](CC(C)C)C(=O)N[C@@H](CCCNC(=N)N)C(=O)N[C@@H](CCCCN)C(=O)N[C@@H](CC(C)C)C(=O)N[C@@H](CC(C)C)C(=O)N[C@@H](CCC(N)=O)C(=O)N[C@@H](CC(=O)O)C(=O)N[C@H](C(=O)N[C@@H](Cc1c[nH]cn1)C(=O)N[C@@H](CC(N)=O)C(=O)N[C@@H](Cc1ccccc1)C(N)=O)C(C)C)C(C)C` [SEQ ID NO: 3, [Aib^1, Nle^8, β-Ala^17, hSer(OMe)^18,1-Nal^23, Leu^27] hPTH (1-34)-NH2] (H-[Aib]VSEIQL[Nle]HNLGKHLN[βAla][hSer](Me)ERVE[1Nal]LRKLLQDVHNF-NH2; N-terminus assumed): the EC50 amounted to 60 pM. Besides, under “Table 3”, the “selectivity for the hPTH-1 receptor over the hPTH-2 receptor” value was determined as 766 fold and the hPTHR-2/hPTHR-1 was 766.

`CCCC[C@H](NC(=O)[C@H](CC(C)C)NC(=O)[C@H](CCC(N)=O)NC(=O)[C@@H](NC(=O)[C@H](CCC(=O)O)NC(=O)[C@H](CO)NC(=O)[C@@H](NC(=O)C(C)(C)N)C(C)C)[C@@H](C)CC)C(=O)N[C@@H](Cc1c[nH]cn1)C(=O)N[C@@H](CO)C(=O)N[C@@H](CC(C)C)C(=O)NCC(=O)N[C@@H](CCCCN)C(=O)N[C@@H](Cc1c[nH]cn1)C(=O)N[C@@H](CC(C)C)C(=O)N[C@@H](CCCCN)C(=O)N[C@@H](CO)C(=O)N[C@H](CC(=O)N[C@@H](CCC(=O)O)C(=O)N[C@@H](CCCNC(=N)N)C(=O)N[C@H](C(=O)N[C@@H](CCC(=O)O)C(=O)N[C@@H](Cc1cccc2ccccc12)C(=O)N[C@@H](CC(C)C)C(=O)N[C@@H](CCCNC(=N)N)C(=O)N[C@@H](CCCCN)C(=O)N[C@@H](CC(C)C)C(=O)N[C@@H](CC(C)C)C(=O)N[C@@H](CCC(N)=O)C(=O)N[C@@H](CCCNC(=N)N)C(=O)N[C@H](C(=O)N[C@@H](Cc1c[nH]cn1)C(=O)N[C@@H](CCC(=O)O)C(=O)N[C@@H](CCC(=O)O)C(N)=O)C(C)C)C(C)C)[C@@H](C)CC` [SEQ ID NO: 4, [Aib^1, Nle^8, Ser^10, Lys^16, β-hIle^18,1-Nal^23, Leu^27, Arg^30, Glu^33, Glu^34] hPTH (1-34)-NH2] (H-[Aib]VSEIQL[Nle]HSLGKHLKS[β3hI]ERVE[1Nal]LRKLLQRVHEE-NH2): the EC50 stood at 40 pM. For the same compound, the hPTHR-2/hPTHR-1 (Table 3) is listed as 110.
